The term Kd denotes the free concentration of one partner at which half of the binding sites on the other are occupied at equilibrium, for simple one-to-one binding.

Structures are written as SMILES.

Experiment [1] concerns the target T1, Fibroblast growth factor receptor 1 (Homo sapiens, UniProt P11362). Kind of experiment: Binding affinity to N-terminal 6xHis-tagged human recombinant FGFR1 (458 to 765) by isothermal titration calorimetric analysis. Background: Isothermal titration calorimetry measures the heat released or taken up as one component is titrated into another.
Experiment [2] addresses T1, Fibroblast growth factor receptor 1. In words: Inhibition of N-terminal GST-tagged human recombinant FGFR1 (456 to 765) after 40 mins by mobility shift assay.

T1 sequence (P11362 whole entry): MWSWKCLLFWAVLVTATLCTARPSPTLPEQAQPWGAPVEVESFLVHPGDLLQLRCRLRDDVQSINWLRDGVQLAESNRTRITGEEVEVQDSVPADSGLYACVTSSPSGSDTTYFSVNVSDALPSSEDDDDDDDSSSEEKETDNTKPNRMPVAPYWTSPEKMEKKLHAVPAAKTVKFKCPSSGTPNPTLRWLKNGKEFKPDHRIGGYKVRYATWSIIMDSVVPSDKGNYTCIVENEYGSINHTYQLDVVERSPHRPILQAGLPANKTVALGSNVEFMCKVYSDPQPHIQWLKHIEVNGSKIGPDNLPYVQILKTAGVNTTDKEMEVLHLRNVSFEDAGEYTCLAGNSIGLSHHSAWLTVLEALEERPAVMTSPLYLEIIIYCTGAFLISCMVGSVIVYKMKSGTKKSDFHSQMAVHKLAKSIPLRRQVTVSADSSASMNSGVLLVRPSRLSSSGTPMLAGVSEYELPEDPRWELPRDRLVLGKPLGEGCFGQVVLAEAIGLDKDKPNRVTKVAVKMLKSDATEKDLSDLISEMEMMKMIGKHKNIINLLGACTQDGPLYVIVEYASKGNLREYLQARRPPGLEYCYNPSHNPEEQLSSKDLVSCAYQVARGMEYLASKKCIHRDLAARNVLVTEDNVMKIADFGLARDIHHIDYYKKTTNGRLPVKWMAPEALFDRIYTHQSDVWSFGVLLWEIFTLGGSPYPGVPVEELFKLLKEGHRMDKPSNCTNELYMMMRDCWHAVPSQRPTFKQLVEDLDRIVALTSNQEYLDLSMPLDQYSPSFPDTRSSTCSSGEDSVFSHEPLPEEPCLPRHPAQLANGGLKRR

As for `COc1cc(CCc2cc(Nc3ccnc(NCc4cc(C)no4)n3)n[nH]2)cc(OC)c1`, in experiment [1], the Kd came out at 0.0058 µM. Further, in experiment [2] (read-out: IC50), the IC50 came to 0.06 µM.

`COc1ccc(CCc2cc(Nc3ccnc(NCc4cc(C)no4)n3)n[nH]2)cc1OC`: the Kd in experiment [1] was found to be 0.447 µM. Moreover, the IC50 was 20 µM in experiment [2] (read-out: IC50) and 0.1 µM in experiment [2] (read-out: pIC50 (converted)).

The values above are taken from ChEMBL document CHEMBL3108753, “FGFR1 Kinase Inhibitors: Close Regioisomers Adopt Divergent Binding Modes and Display Distinct Biophysical Signatures” (ACS Med Chem Lett, 2014).
